Test results reported in article PMC3702004, “Comparison of Intake and Systemic Relative Effect Potencies of Dioxin-like Compounds in Female Mice after a Single Oral Dose” (Environmental Health Perspectives, 2013).

How the values were obtained:
Cyp1a1 mRNA in liver = test: Cyp1a1 gene expression in liver (real-time PCR); format: in vivo, female C57BL/6 mice; conditions: for BMR20TCDD Liver Cyp1a1 mRNA: 3 days after single oral dose; for REP Liver Cyp1a1 mRNA: relative to TCDD
Experimental: (§1) Animals. Eight-week-old female C57BL/6 mice (Harlan laboratories, Venray, the Netherlands) were randomly assigned to treatment groups (six animals per group) and allowed to acclimate for 1.5 weeks. The animals were housed in groups in standard cages and conditions (23 ± 2°C, 50–60% relative humidity, 12-hr dark/light cycle) with free access to food and water. Mice received a single dose of test compound by oral gavage at a dosing volume of 10 mL/kg body weight (BW). Mice treated with corn oil vehicle (10 mL/kg BW) served as controls. For each congener, five different doses were administered, ranging from 0.5–100 μg/kg BW (TCDD) to 5,000–500,000 µg/kg BW (PCB-153). Detailed information on doses is provided in Supplemental Material, Table S1 (http://dx.doi.org/10.1289/ehp.1206336). On day 3 after dosing, animals were euthanized by CO2/O2 asphyxiation, and blood was immediately collected from the abdominal aorta. The liver, thymus, spleen, and adipose tissue were removed, weighed (liver, thymus, and spleen), snap frozen, and stored at –80°C. All animal treatments were performed with permission of the Animal Ethical Committee (DEC Utrecht) and performed according to the [Law on Animal Experiments (1977)]. Animals were treated humanely and with regard for alleviation of suffering.
(§2) RNA isolation and quantitative real-time polymerase chain reaction (PCR). Total RNA was isolated from liver and PBLs using a QIAGEN RNeasy kit (QIAGEN). Purity and concentration of the isolated RNA was determined by measuring the absorbance ratio at 260/280 nm and 230/260 nm with a Nanodrop 2000 spectrophotometer (Thermo Scientific, Asheville, NC, USA). RNA was reverse transcribed to complementary DNA (cDNA) using the iScript cDNA synthesis Kit (Bio-Rad, Veenendaal, the Netherlands). Quantitative real-time PCR analyses were performed using the iQ Real-Time PCR Detection System with SYBR green (Bio-Rad). Amplification reactions were set up with […] containing 12.5 μL iQ SYBR Green Supermix (Bio-rad), 0.5 μL distilled H2O, 1 μL (10 μM) forward primer, 1 μL (10 μM) reverse primer, and 10 μL first strand cDNA (10X diluted). Primer sequences were as follows: Cyp1a1: forward-5´-GGTTAACCATGACCGGGAACT-3´ and reverse-5´-TGCCCAAACCAAAGAGAGTGA-3´ ([Schulz et al. 2012]); Cyp1a2: forward-5´-ACATTCCCAAGGAGCGCTGTATCT-3´ and reverse-5´-GTCGATGGCCGAGTTGTTATTGGT-3´ ([Flaveny et al. 2010]); Cyp1b1: forward-5´-GTGGCTGCTCATCCTCTTTACC-3´ and reverse-5´-CCCACAACCTGGTCCAACTC-3´ ([Berge et al. 2004]); β-actin: forward-5´-ATGCTCCCCGGGCTGTAT-3´ and reverse-5´-CATAGGAGTCCTTCTGACCCATTC-3´ ([Schulz et al. 2012]). All primers were run through the National Center for Biotechnology Information Primer-BLAST database (http://www.ncbi.nlm.nih.gov/tools/primer-blast/) to confirm specificity and validate for optimal annealing temperature (60°C for all primers) and efficiency. […] The following program was used for denaturation and amplification of cDNA: 3 min at 95°C, followed by 40 cycles of 15 sec at 95°C and 45 sec at 60°C. Gene expression for each sample was expressed as threshold cycle (Ct), normalized to the reference gene β-actin (ΔCt). We calculated fold induction relative to the control group.
(§3) Data analysis. We obtained concentration–response curves using a sigmoidal dose–response nonlinear regression curve fit with variable slope (GraphPad Prism 6.01; GraphPad Software Inc., San Diego, CA, USA):
(§4) In this Hill equation, y is the dependent variable (EROD activity or fold induction of mRNA levels), x the independent variable (administered or systemic dose), E0 is the estimated background response level, Emax is the maximum response, b is the estimated median effective concentration (EC50), and n is the shaping parameter of the Hill curve.
(§5) Using the congener-specific BMR20TCDD concentration, REPs were calculated relatively to TCDD: […]

[1] = test system: hepatic CYP1A1 activity (ethoxyresorufin-O-deethylase, EROD); test: Hepatic EROD activity in hepatic microsomal fractions after single oral dose; format: in vivo, female C57BL/6 mice; conditions: for BMR20TCDD Liver EROD activity: 3 days after single oral dose; for REP Liver EROD activity: relative to TCDD
Experimental: as §1
EROD activity. We determined hepatic CYP1A1 activity using ethoxyresorufin-O-deethylase (EROD) activity in hepatic microsomal fractions as described by [Schulz et al. (2012)].
as §3, §4, §5

Cyp1a1 mRNA in PBLs = test: Cyp1a1 gene expression in peripheral blood lymphocytes; format: in vivo, female C57BL/6 mice; conditions: for BMR20TCDD PBLs Cyp1a1 mRNA: 3 days after single oral dose; for REP PBLs Cyp1a1 mRNA: relative to TCDD
Experimental: as §1
Plasma and PBL isolation. Blood from two mice was pooled (total volume of approximately 1.4 mL); plasma and PBLs were then isolated using Ficoll Paque gradient (GE Healthcare Europe, Diegem, Belgium). Plasma samples were stored at –80°C until compound analysis. Isolated lymphocytes were lysed with RLT buffer (QIAGEN, Venlo, the Netherlands) as described in the QIAGEN RNAeasy kit protocol and stored at –80°C until use.
as §2
Data analysis. We obtained concentration–response curves using a sigmoidal dose–response nonlinear regression curve fit with variable slope (GraphPad Prism 6.01; GraphPad Software Inc., San Diego, CA, USA): […]

[2] = CYP1A2 knockout mice; ref Diliberto et al. 1997; cited from earlier work
[3] = dose metric Adm dose (µg/kg BW)
[4] = dose metric Syst liver (ng/g lipid)
[5] = dose metric Syst liver (ng/g liver)
[6] = dose metric Syst plasma (ng/g lipid)
[7] = dose metric Syst adipose (ng/g lipid)

Compound | BMR20TCDD Liver Cyp1a1 mRNA (Cyp1a1 mRNA in liver; dose metric Adm dose) | BMR20TCDD Liver Cyp1a1 mRNA (Cyp1a1 mRNA in liver; dose metric Syst plasma) | REP Liver Cyp1a1 mRNA (Cyp1a1 mRNA in liver; [3]) | REP Liver Cyp1a1 mRNA (Cyp1a1 mRNA in liver; [4]) | REP Liver Cyp1a1 mRNA (Cyp1a1 mRNA in liver; [5]) | REP Liver Cyp1a1 mRNA (Cyp1a1 mRNA in liver; [6]) | BMR20TCDD Liver EROD activity ([1]; dose metric Adm dose) | BMR20TCDD Liver EROD activity ([1]; dose metric Syst adipose) | BMR20TCDD Liver EROD activity ([1]; dose metric Syst plasma) | REP Liver EROD activity [1, 3] | REP Liver EROD activity [1, 7] | REP Liver EROD activity [1, 4] | REP Liver EROD activity [1, 5] | REP Liver EROD activity [1, 6] | BMR20TCDD Liver Cyp1a1 mRNA (Cyp1a1 mRNA in liver; dose metric Syst adipose) | REP Liver Cyp1a1 mRNA (Cyp1a1 mRNA in liver; [7]) | BMR20TCDD PBLs Cyp1a1 mRNA (Cyp1a1 mRNA in PBLs; dose metric Adm dose) | BMR20TCDD PBLs Cyp1a1 mRNA (Cyp1a1 mRNA in PBLs; dose metric Syst plasma) | REP PBLs Cyp1a1 mRNA (Cyp1a1 mRNA in PBLs; [3]) | REP PBLs Cyp1a1 mRNA (Cyp1a1 mRNA in PBLs; [6]) | also measured
Clc1ccc(-c2cc(Cl)c(Cl)cc2Cl)cc1Cl [PCB-118, 2,3´,4,4´,5-pentachlorobiphenyl] | 139,631 µg/kg BW | 803,766 ng/g lipid | 0.000005 | 0.00005 | 0.00007 | 0.000003 | 55,259 µg/kg BW | 359,114 ng/g lipid | 311,118 ng/g lipid | 0.000005 | 0.000003 | 0.00006 | 0.00006 | 0.000004 |  |  |  |  |  |  | 
Clc1ccc(-c2cc(Cl)c(Cl)c(Cl)c2)cc1Cl [PCB-126, 3,3´,4,4´,5-pentachlorobiphenyl] | 558 µg/kg BW |  | 0.001 | 0.001 | 0.001 | 0.008 | 29.3 µg/kg BW | 72.7 ng/g lipid | 72.3 ng/g lipid | 0.01 | 0.02 | 0.003 | 0.004 | 0.02 | 315 ng/g lipid | 0.008 | 603 µg/kg BW | 847 ng/g lipid | 0.04 | 0.06 | 
Clc1ccc(-c2cc(Cl)c(Cl)c(Cl)c2Cl)cc1Cl [PCB-156, 2,3,3´,4,4´,5-hexachlorobiphenyl] | 44,305 µg/kg BW | 303,586 ng/g lipid | 0.00001 | 0.0001 | 0.0001 | 0.000009 | 15,664 µg/kg BW | 82,483 ng/g lipid | 98,188 ng/g lipid | 0.00002 | 0.00001 | 0.0002 | 0.0002 | 0.00001 | 180,515 ng/g lipid | 0.00001 | 747,734 µg/kg BW | 2,359,081 ng/g lipid | 0.00003 | 0.00002 | 
Clc1cc2c(cc1Cl)Oc1c(cc(Cl)c(Cl)c1Cl)O2 [PeCDD, 1,2,3,7,8-pentachlorodibenzodioxin] | 1.25 µg/kg BW | 3.94 ng/g lipid | 0.5 | 0.4 | 0.4 | 0.7 | 0.54 µg/kg BW | 1.25 ng/g lipid | 2.31 ng/g lipid | 0.5 | 1 | 0.3 | 0.3 | 0.6 | 2.36 ng/g lipid | 1 | 33.7 µg/kg BW | 34.0 ng/g lipid | 0.7 | 1.5 | 
Clc1cc2c(cc1Cl)Oc1cc(Cl)c(Cl)cc1O2 [TCDD, 2,3,7,8-tetrachlorodibenzodioxin, reference compound] | 0.64 µg/kg BW | 2.66 ng/g lipid | 1 | 1 | 1 | 1 | 0.29 µg/kg BW | 1.23 ng/g lipid | 1.38 ng/g lipid | 1 | 1 | 1 | 1 | 1 | 2.50 ng/g lipid | 1 | 22.4 µg/kg BW | 50.6 ng/g lipid | 1 | 1 | Liver:adipose ratio [2]: < 0.3
